Assay results as given in patent US11802107B2, “Compounds and methods of use” (Signum Biosciences, Inc., priority 2017, dated 2023).
Values after ≈ are worked out from the molar mass of the structure shown. One block for each molecule: values may come before it.

Key:
IL-8 [1] = assay: Peptidoglycan (PGN)-induced IL-8 on NHEKs; type: cell-based, human; settings: Homo sapiens; NHEK, PGN 10 μg/mL, 24 hours, ELISA; read-out: PGN-NHEK 1L-8 Protein IC50
Method: (§1) Normal human epidermal keratinocytes (NHEKs) from neonatal donors were obtained from Thermo-Fisher (Cat No. C-001-5C). Cells were cultured in 96-well plates for 24 hours with EpiLife media (Cat No. MEPI500CA) supplemented with keratinocytes growth supplement (Cat No. S0015). On Day 2, media was removed and replaced with supplement-depleted medium for 24 hours. On Day 3, media was removed and cells were pre-treated with test materials (≤1 μM) for 2 hours and later co-treated with test materials and PGN (Sigma Aldrich, Cat No. 77140) at 10 μg/mL and incubated for 24 hours at 37° C. and 5% CO2. PGN is a TLR-2 agonist. After incubation, cell media supernatants were harvested and used to measure pro-inflammatory cytokine levels (IL-8) using ELISA kit (BD Biosciences® #555244). Results were represented as percent of inhibition relative to untreated and PGN-only treated cells. IC50 values were determined by non-linear regression analysis using the four-parameter logistic equation.

HCAP18 = assay: NHEK antimicrobial peptide gene expression, hCAP18; type: cell-based, human; settings: 10 μM, 24 hours, qPCR, normalized to GAPDH
Method: (§2) Normal human epidermal keratinocytes (NHEKs) from neonatal donors were obtained from Thermo-Fisher (Cat No. C-001-5C). Cells were cultured in 6-well plates for 24 hours before treatments with EpiLife media (Cat No. MEPI500CA) supplemented with keratinocytes growth supplement (Cat No. 50015). On Day 2, media was removed and incubated with test materials (10 μM) for 24 hours at 37° C. and 5% CO2. On Day 3, total RNA was extracted from cells using the RNAqueous® kit (Ambion®; Cat No. 1912) and cDNA was obtained using the High Capacity RNA-to-cDNA kit (Applied Biosystems®; Cat No. 4387406). Quantitative PCR (qPCR) was performed using the TaqMan® Fast Advanced Master Mix (Applied Biosystems®; Cat No. 4444556) and specific TaqMan®-probes human gene primers DEFB4B (hBD2), DEFB103 (hBD3), HCAP18 and GAPDH to calculate the relative gene fold expression change per treatment. Gene expression analysis was performed using the comparative Ct method (also known as the 2-[delta][delta]Ct) approach by comparing the Ct values of the treated samples with the untreated samples and normalized to GAPDH gene expression as endogenous housekeeping gene. Results were represented as fold-expression/untreated cells.

DEFB4B (hBD2) = assay: NHEK antimicrobial peptide gene expression, hBD2; type: cell-based, human; settings: 10 μM, 24 hours, qPCR, normalized to GAPDH
Method: as §2

[2] = system: P. acnes (ATCC 6919) biofilms; assay: P. acnes biofilm eradication (MBEC), crystal violet; type: cell-based, Propionibacterium acnes; settings: 24 hours, ≥80% eradication vs vehicle
Method: P. acnes (ATCC® 6919™) was cultured as described above. Bacteria biofilms were established by seeding P. acnes cultures in 96-well plates and incubating for 24 hours without agitation. Later, biofilms were incubated with test materials for 24 hours. Remaining biofilms were washed and stained with crystal violet. […] The absorbance was measured at 595 nm in a microplate reader. […] Results from disk diffusion susceptibility testing (Kirby-Bauer Method) after 72 hours incubation were also obtained.

P. acnes (ATCC 6919) [3] = assay: Minimal inhibitory concentration (MIC) against P. acnes; type: cell-based, Propionibacterium acnes; settings: Cutibacterium acnes, ATCC6919, 72 h, P. acnes ATCC 6919, 10^6 CFU/mL, read-out: MIC
Method: To determine minimal inhibitory concentration (MIC), reagents were dissolved in vehicle (5% v/v) and then added to bacteria suspension. P. acnes (ATCC® 6919TM) at 10^6 CFU/mL was incubated with test materials at the concentrations of two-fold serial dilution (0.25-500 μg/mL) and incubated for 72 hours (P. acnes).

P. acnes (ATCC 6919) [4] = assay: Minimal bactericidal concentration (MBC) against P. acnes; type: cell-based, Propionibacterium acnes; settings: Cutibacterium acnes, ATCC6919; P. acnes 10^7 CFU/mL, in PBS, anaerobic conditions
IL-17 = assay: P. acnes-induced IL-17 protein on human PBMCs (ELISA); type: cell-based; settings: PBMC, PBMCs + live P. acnes 1:1, test material 30 PM, 24 hours
Method: (§3) Cryopreserved human Peripheral Blood Mononuclear cells (PBMCs) from healthy adult donors were obtained from Zen Bio, Inc (Cat No. SER-PBMC-F). Cells were cultured in 12-well plates with lymphocyte media (Cat No. LYMPH-1) and incubated with test materials ([…]) and live P. acnes (ATCC® 6919TM) at 1:1 PBMC: P. acnes bacteria ratio for 24 hours at 37° C. and 5% CO2. After incubation, cell media supernatants were harvested and used to measure pro-inflammatory cytokine levels (IL-8, TNF-α, IL-1b, IL-17) using ELISA kits (BD Biosciences® #557966, #555212, #555244; R&D Systems® #DY317). Total RNA was extracted from cells using the RNAqueous® kit (Ambion®; Cat No. 1912) and cDNA was obtained using the High Capacity RNA-to-cDNA kit (Applied Biosystems®; Cat No. 4387406). Quantitative PCR (qPCR) was performed using the TaqMan® Fast Advanced Master Mix (Applied Biosystems®; Cat No. 4444556) and specific TaqMan®-probes human gene primers CXCL8 (IL-8), IL1B (IL-1b), TNF (TNF-α), IL17A (IL-17A) and GAPDH to calculate the relative gene fold expression change per treatment. Gene expression analysis was performed using the comparative Ct method (also known as the 2-[delta][delta]Ct) approach by comparing the Ct values of P. acnes-only treated cells with the untreated samples and normalized to GAPDH gene expression as endogenous housekeeping gene.

IL-1b = assay: P. acnes-induced IL-1b protein on human PBMCs (ELISA); type: cell-based; settings: PBMC, PBMCs + live P. acnes 1:1, test material 30 PM, 24 hours
Method: as §3

TNF-α = assay: P. acnes-induced TNF-α protein on human PBMCs (ELISA); type: cell-based; settings: PBMCs + live P. acnes 1:1, test material 30 PM, 24 hours
Method: as §3

DEFB103 (hBD3) = assay: NHEK antimicrobial peptide gene expression, hBD3; type: cell-based, human; settings: 10 μM, 24 hours, qPCR, normalized to GAPDH
Method: as §2

IL-8 [5] = assay: P. acnes-induced IL-8 protein on human PBMCs (ELISA); type: cell-based; settings: PBMCs + live P. acnes 1:1, test material 30 PM, 24 hours
Method: as §3

[6] = system: subjects with mild to moderate acne; assay: 8-week clinical study in subjects with mild to moderate acne; type: in vivo; set-up: scale not given here; settings: E 1% w/w, BPO 3% w/w, human
Description: Subjects used the assigned product at home for 8 weeks. Subjects returned post baseline at week 2, 4 and 8. At each visit subjects underwent expert clinical grading and test site photography. […] The severity of acne signs and symptoms on the faces of >18 yo subjects were clinically assessed by IGA scale during an 8-week Study period. In addition, UV light mode was utilized to observe porphyrins fluorescence (orange-red dots).

Balb/C mice = assay: Oxazolone-induced delayed-type hypersensitivity (DTH) in vivo model; settings: Mus musculus, topical @1%, 24 hours, read-out: Edema % inhibition
Method: Inbred male Balb/C mice were purchased from Hilltop Lab Animals (Scottdale, PA) and were used between 8 and 10 weeks of age. Mice backs were shaved and 100 μl of 3% v/v Oxazolone (Sigma Aldrich, Cat No. E0753) in acetone/olive oil (4:1) was applied to dorsal skin for sensitization. On Day 7, ears were challenged with 0.5% v/v Oxazolone and 30 minutes after challenge, test materials at 3% w/v were applied to ears (10 μl applied both to the dorsal and ventral surfaces of the mouse ear using a solvent pipette) and 24 hours later, skin thickness (edema) was measured. A 6-mm punch biopsy was obtained from each ear, snap frozen in liquid nitrogen. Ear skin biopsy punches were pulverized using FastPrep®-24 Biopulverizer (MP Biomedical, CatNo. 116004500) and Lysing Matrix A tubes (CatNo. 16910050). Protein extracts were obtained using 500 μL/tissue of cold T-PER buffer (ThermoFisher, CatNo. 78510) with Protease inhibitors (Sigma-Aldich, CatNo. 58820-20TAB). Soluble protein fractions were used to measure cytokine levels (IL-4) using ELISA kit (BD Biosciences® #555232). Results were represented as percent of inhibition relative to unsensitized and sensitized-only treated animals. Vehicle for presently disclosed compounds was 60:40 H2O:EtOH and 1:1 Acetone:EtOH for AN2718. (n=5-15 animals per treatment group).
Compound C was further analyzed at various dosages against 0.4 mg/ear of […] by the above protocol, data representing the average±S.E. of cumulative data from three independent experiments (n=12-15 mice per group) is shown below: […]

IL-8 [7] = assay: TPA-induced IL-8 on NHEKs; type: cell-based; settings: Homo sapiens; NHEK, TPA 5 ng/mL, 24 hours, ELISA
Method: as §1, with “TPA” for “PGN”, “P8139)” for “77140)”, “5 ng/mL” for “10 μg/mL”, “CO2.” for “CO2. PGN is a TLR-2 agonist.”, “TPA-only” for “PGN-only”

IL-13 = assay: Concanavalin-A-induced IL-13 on PBMCs; type: cell-based; settings: Homo sapiens, PBMC, ConA, 24 hours, ELISA
Swiss Webster (ICR) mice = assay: TPA-induced skin irritation in vivo model (mouse ear); settings: topical @ 1% w/v, 24 hour
Method: Outbred male Swiss Webster (ICR) mice were purchased from Hilltop Lab Animals (Scottdale, PA) and were used between 10 and 12 weeks of age and we followed a similar protocol previously described (Gordon et al., 2008). Mice received 1.2 μg/20 μl TPA dissolved in acetone (10 μl applied both to the dorsal and ventral surfaces of the mouse ear using a solvent pipette) to each ear to induce acute irritation (6 per group). Test Materials were co-treated with TPA or applied 5 minutes after TPA dose, at various concentrations (0.6 to 800 μg/20 μl) in ethanol. After 24 hour treatment, edema was measured by ear thickness.

IL-31 = assay: Anti-CD3/CD28+IL-4-induced IL-31 on PBMCs; type: cell-based; settings: Homo sapiens, PBMC, anti-CD3/CD28 beads + 50 ng/mL IL-4, 48 hours, ELISA, read-out: TCR/IL-4-PBMCs IL-31 IC50
Method: Cryopreserved human Peripheral Blood Mononuclear cells (PBMCs) from healthy adult donors were obtained from Zen Bio, Inc (Cat No. SER-PBMC-F). Cells were cultured in 96-well plates with lymphocyte media (Cat No. LYMPH-1) and were pre-treated with test materials (≤100 μM) for 2 hours and later co-treated with test materials and anti-CD3/CD28 beads (Thermo-Fisher; Cat No. 11131D) and 50 ng/mL recombinant human IL-4 (R&D Systems® #204-IL) for 48 hours at 37° C. and 5% CO2. After incubation, cell media supernatants were harvested and used to measure cytokine levels (IL-22, IL-31) using ELISA kits (R&D Systems® #DY782, #DY2824). Results were represented as percent of inhibition relative to untreated and anti-CD3/CD28+IL-4 only treated cells. IC50 values were determined by non-linear regression analysis using the four-parameter logistic equation.

IC50 (IL-8 [1]): > 1000 nM | MIC (P. acnes (ATCC 6919) [3]): 200 µg/mL (≈ 826 µM)
Compound: O=C(OOC(=O)c1ccccc1)c1ccccc1 [Benzoyl Peroxide, reference compound]
hCAP18 gene expression (HCAP18): 2.8 Fold-expression/untreated cells | hBD2 gene expression (DEFB4B (hBD2)): 1.6 Fold-expression/untreated cells | MBEC [2]: 367 μg/mL and (1515) μM | MBC (P. acnes (ATCC 6919) [4]): > 200 µg/mL | inhibition at 30 pM (IL-17): 15% | inhibition at 30 pM (IL-1b): 33% | TNFa-Protein % inhibition (TNF-α): 0% | hBD3 gene expression (DEFB103 (hBD3)): 1.2 Fold-expression/untreated cells | IL-8 Protein % inhibition (IL-8 [5]): 78% | Investigator Global Assesment (IGA) Scale ([6]; 2 week): 2 | Investigator Global Assesment (IGA) Scale ([6]; 4 week): 1 | Investigator Global Assesment (IGA) Scale ([6]; 8 week): 1 | Investigator Global Assesment (IGA) Scale ([6]; Baseline): 3

IC50 (IL-8 [7]): 10 nM | IC50 (IL-13): 600 nM | IC50 (IL-31): 0.4 nM
Compound: C=CC[C@@H]1/C=C(\C)C[C@H](C)C[C@H](OC)[C@H]2O[C@@](O)(C(=O)C(=O)N3CCCC[C@H]3C(=O)O[C@H](/C(C)=C/[C@@H]3CC[C@@H](O)[C@H](OC)C3)[C@H](C)[C@@H](O)CC1=O)[C@H](C)C[C@@H]2OC [FK506, reference compound]
inhibition in vivo at 1 % (Balb/C mice): 32% | MPO (% inhibition) (Swiss Webster (ICR) mice): 81% | Edema (% inhibition) (Swiss Webster (ICR) mice; ear thickness): 0%
